The record followed here is article PMC11002876, “KcsA-Kv1.x chimeras with complete ligand-binding sites provide improved predictivity for screening selective Kv1.x blockers” (The Journal of Biological Chemistry, 2024).

The structures appear in SMILES notation.

The target of one experiment is T1, KcsA-Kv1.3 T+F chimera (Streptomyces lividans, UniProt P0A334, A54D/A57S/G53D/G56T/I60S/L59F/L81M/Q58G/R52A/R64D/T61S/Y62I/Y82H).
T1 construct: made in house; host or cells: E. coli C41(DE3) (pET45b)
T1 sequence (P0A334 1-160 R52A/G53D/A54D/G56T/A57S/Q58G/L59F/I60S/T61S/Y62I/R64D/L81M/Y82H): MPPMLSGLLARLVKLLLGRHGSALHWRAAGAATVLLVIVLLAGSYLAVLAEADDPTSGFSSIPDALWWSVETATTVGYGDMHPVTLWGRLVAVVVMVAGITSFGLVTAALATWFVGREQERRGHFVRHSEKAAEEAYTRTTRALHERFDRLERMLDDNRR
Nature of the experiment: Phage-binding competition assay, KcsA-Kv1.3 T+F. Also on record: species or system human Kv1.3 turret and filter in Streptomyces lividans KcsA. How it is done: Phage stock solutions were diluted to working concentration with phage resuspension buffer supplemented with 2 mM DDM. For protein immobilization, the following amounts were used in a final volume of 50 μl/well: wt KcsA, 0.1 μg; KcsA-Kv1.1 T-only, 0.005 μg; KcsA-Kv1.1 T+F, 0.02 μg; KcsA-Kv1.2 T-only, 0.01 μg; KcsA-Kv1.2 T+F, 0.1 μg; KcsA-Kv1.3 T-only, 0.01 μg; and KcsA-Kv1.3 T+F, 0.1 μg. Protein samples were diluted in 50 μl of storage buffer (20 mM Tris pH8.0, 300 mM KCl, 2 mM DDM) and were added to the designated wells of a Pierce Clear, 96-Well Nickel Coated Plate (15442, Thermo Fisher Scientific), then incubated for 1 h at room temperature on a horizontal shaker at 130 rpm. The plate was blocked for 1 h at room temperature with 180 μl/well TBS-BSA supplemented with 1 mM DDM. Following blocking, the wells were washed 4× with washing buffer (300 μl TBS-Tween, 0.1% v/v) using a Wellwash Versa microplate washer (Thermo Fisher Scientific); then 50 μl phage solution (in TBS-BSA-Tween, 0.1% v/v, 2 mM DDM) at determined phage concentration was added to the wells and incubated for 1 h at room temperature on a horizontal shaker. The plate was washed 4× with washing buffer, then 50 μl anti-M13 IgG HRP (MA5-36125, Invitrogen) diluted to 1:2500 in TBS-Tween (0.1% v/v) was added to the wells and incubated for 1 h at room temperature. The plate was washed again 4× with 300 μl/well washing buffer. Finally, 50 μl/well 1-Step Ultra TMB-ELISA solution (34028, Thermo Fisher Scientific) was added to the wells, and the developing signal was stopped with 50 μl 1M HCl after 5 to 10 min. The light absorbance signal was read at 450 nm with Byonoy absorbance 96 plate reader (Byonoy GmbH).
For protein immobilization, the following amounts were used in a final volume of 50 μl/well: KcsA-Kv1.1 T-only, 0.005 μg; KcsA-Kv1.1 T+F, 0.01 μg; KcsA-Kv1.2 T-only, 0.025 μg; KcsA-Kv1.2 T+F, 0.0125 μg; KcsA-Kv1.3 T-only, 0.01 μg; and KcsA-Kv1.3 T+F, 0.1 μg. Protein samples were diluted in storage buffer. Binding of given concentrations of relevant ligand-displaying phages quantified by light absorbance ([…]) were investigated in a similar manner as in phage ELISA-binding assay, while different concentrations of competing toxin test substances were applied simultaneously. The results were converted to percent inhibitions (percent displacement) of the indicator phage binding, and relative affinities of the tested toxins were assessed by plotting percent displacements against log concentrations and determining half maximal inhibitory concentrations (IC50) by sigmoidal curve fitting using “Sigmoidal dose-response (variable slope) with least squares method” algorithm in GraphPad Prism 8 using the following equation: Y=Bottom+Top−Bottom/1+10^(LogEC50−×)⋅HillSlope

For experiment [1], the system named is human Kv1.2 channel (hKv1.2). Nature of the experiment: Whole-cell patch-clamp, hKv1.2-expressing CHO cells. The class given is cell-based. The conditions noted are these: see Table 1 and Fig. S2; 10 nM peptide in patch-clamp. Here is the method:
Chinese Hamster Ovarian cells were grown in Dulbecco’s modified Eagle’s medium–high glucose supplemented with 10% FBS, 2 mM L-glutamine, 100 U/ml penicillin-g, and 100 μg/ml streptomycin (Invitrogen) at 37 °C in a 5% CO2 and 95% air humidified atmosphere. Cells were passaged twice per week following a 5 min incubation in PBS containing 0.2 g/L EDTA. Chinese Hamster Ovarian cells were transiently transfected with plasmids encoding human Kv1.1 (hKCNA1 gene) and human Kv1.2 (hKCNA2 gene) in pCMV6-AC-GFP plasmid (RG211000 and RC222200, OriGene Technologies) using Lipofectamine 2000 (Invitrogen) following the manufacturer’s protocol, then cultured under standard conditions. Transfected cells were washed twice with 2 ml of extracellular solution (ECS, see below) and replated onto 35 mm polystyrene cell culture dishes (Cellstar, Greiner Bio-One) before the patch-clamp experiments. […] In general, currents were recorded 24 to 36 h after transfection.
Conventional whole-cell patch-clamp electrophysiology was used to record ionic currents. Micropipettes were pulled from GC150F-7.5 borosilicate capillaries (Harvard Apparatus) with tip diameters between 0.5 and 1 μm resulting in a tip resistance of 2 to 8 MΩ in the extracellular (bath) solution. […]
Native peptides, phage-expressed peptides, and positive controls used for them were dissolved in ECS supplemented with 0.1 mg/ml bovine serum albumin (BSA; Sigma-Aldrich Hungary). Bath perfusion around the measured cell with different extracellular solutions was achieved using a gravity flow micro perfusion system using a rate of 0.5 ml/min. […]
Voltage protocols: For measurement of Kv1.1 to 1.3 currents, voltage steps to +50 mV were applied from a holding potential of −120 mV and the peak current was measured every 15 s. […] The remaining current fraction at a given molar concentration was calculated as I/I0, where I0 is the peak current in the absence and I is the peak current at equilibrium block or […] after ∼2 min perfusion by the investigated peptide/phage.
In general terms: Patch clamp records ionic current or voltage across a cell membrane.

Consider `CC[C@H](C)[C@H](NC(=O)[C@H](CCC(=O)O)NC(=O)[C@@H](NC(=O)CN)C(C)C)C(=O)N[C@@H](CC(N)=O)C(=O)N[C@H](C(=O)N[C@@H](CCCCN)C(=O)N[C@H]1CSSC[C@@H]2NC(=O)[C@H](CCCCN)NC(=O)CNC(=O)[C@H](Cc3ccccc3)NC(=O)[C@H](CCCNC(=N)N)NC(=O)[C@H](CCSC)NC(=O)CNC(=O)[C@H](C)NC(=O)[C@H](CC(=O)O)NC(=O)[C@H](CCCCN)NC(=O)[C@@H]3CSSC[C@@H](C(=O)N[C@H](C(=O)N4CCC[C@H]4C(=O)N[C@@H](CCCCN)C(=O)O)[C@@H](C)O)NC(=O)[C@H](Cc4c[nH]cn4)NC(=O)[C@H](CSSC[C@H](NC(=O)[C@H](CCC(N)=O)NC(=O)[C@@H]4CCCN4C(=O)[C@H](CO)NC(=O)CNC(=O)[C@H](CO)NC1=O)C(=O)N[C@@H](CC(C)C)C(=O)N[C@@H](CCCCN)C(=O)N1CCC[C@H]1C(=O)N3)NC(=O)[C@H](CCCCN)NC(=O)[C@H](CCCNC(=N)N)NC(=O)[C@H](CC(N)=O)NC(=O)[C@H](CCSC)NC2=O)C(C)C` [KTX1, Kaliotoxin-1], for which, at KcsA-Kv1.3 T+F chimera (HgTx1-phage competition, Fig. 6F), the “rank order of affinities, competition, KcsA-Kv1.3 T+F” value is on record as “Vm24 > HgTx1 > KTX1”. At KcsA-Kv1.3 T+F chimera (displacement of HgTx1-phage, KcsA-Kv1.3 T+F 0.1 μg/well on nickel-coated plate, phage ELISA absorbance, mean ± SD (n = 3), read-out: IC50, T+F chimera (Kv1.3)), the IC50 (commonly the concentration that gives 50% inhibition) is 98.2 nM. Also, the “Rank, T+F chimera (Kv1.3)” value on KcsA-Kv1.3 T+F chimera (rank by competition IC50 among Vm24, HgTx1, KTX1) is given as 3. Besides, in experiment [1], the “potency ranking, Kv1.2” value is recorded as “MTX > ShK >> KTX1”.
